Legend:
Format in all cases: in vivo, human
[1] = test system: Chronic lymphocytic leukemia/small lymphocytic lymphoma; test: Clinical trial in small lymphocytic lymphoma or chronic lymphocytic leukemia (Example 6); conditions: 20 mg orally once daily, 28-day cycle
Experimental: (§1) Method of administration: orally administered once daily, 20 mg each time, with 28 consecutive days of administration as one cycle. Drug: tablet of the compound of formula I, 5 mg or 20 mg. […] The efficacy was evaluated with reference to IWCLL2008 evaluation criteria and the evaluation criteria revised by the Lugano conference, 2014 edition. Primary evaluation indexes of efficacy: objective response rate (ORR), i.e., (CR+PR cases)/total cases, including cases of complete response (CR) and partial response (PR). Secondary evaluation indexes of efficacy: progression-free survival (PFS), overall survival (OS), disease control rate (DCR) and duration of response (DOR).

[2] = test system: relapsed or refractory FL; test: Clinical trial in relapsed or refractory follicular lymphoma (Example 4)
Experimental: as §1, with “according” for “with reference”, “the revised” for “IWCLL2008”, “of” for “and the evaluation criteria revised by”

[3] = test system: relapsed or refractory lymphoma; test: Clinical trial of tablets of the compound of formula I in relapsed or refractory lymphoma (Example 2); parameters: key to Best efficacy: “Small SD” means that at the time of efficacy evaluation, a lesion shrinks in size compared with a baseline level, but does not meet the criteria for PR
Experimental: Drug: tablet of the compound of formula I, 1 mg or 5 mg. 2.2 Enrollment Criteria • 1) Unambiguously diagnosed as relapsed or refractory lymphoma by pathology and/or cytology; • 2) Has at least one measurable target lesion other than brain lesions confirmed by imaging in screening phase (evaluated according to the evaluation criteria revised by the Lugano conference, 2014 edition); • 3) Aged 18-75 years; • 4) ECOG (PS) score ≤1; • 5) Expected survival time ≥3 months; • 6) Main organ functions in the screening phase meet the following criteria: Criteria for blood routine examination (no growth factor used or no blood transfusion conducted within 7 days): • Absolute value of neutrophil count (ANC)≥1.5×10^9/L; • Platelet (PLT)≥75×10^9/L; hemoglobin (Hb)≥90 g/L; Criteria for blood biochemical examination: • Alanine transaminase (ALT) and aspartate transferase (AST)≤1.5×ULN (for patients with tumor liver metastasis, ≤3×ULN); • Glycosylated hemoglobin (HbA1c)≤8.5%; • Lipase≤1.5×ULN; • Serum total bilirubin≤1.5×ULN; • Serum creatinine (Cr)≤1.5×ULN; • 7) Doppler ultrasound evaluation: left ventricular ejection fraction (LVEF)≥lower limit of normal (50%); • 8) Female subjects should agree to take contraceptive measures (such as intrauterine devices [IUD], contraceptives or condoms) during the study and for 6 months after the study; serum or urine pregnancy test results should be negative within 7 days before enrollment, and the subjects must not be breastfeeding; male subjects should agree to take contraceptive measures during the study and for 6 months after the study; and • 9) Voluntary participation, written informed consent and good compliance. The efficacy was evaluated according to the revised evaluation criteria of the Lugano conference, 2014 edition. Primary evaluation indexes of efficacy: objective response rate (ORR), i.e., (CR+PR cases)/total cases, including cases of complete response (CR) and partial response (PR). Secondary evaluation indexes of efficacy: progression-free survival (PFS), overall survival (OS), disease control rate (DCR) and duration of response (DOR).

[4] = test system: relapsed/refractory diffuse large B-cell lymphoma (DLBCL); test: Clinical trial in relapsed/refractory diffuse large B-cell lymphoma (Example 5); conditions: 20 mg orally once daily, 21-day cycle
Experimental: as §1, with “21” for “28”, “according” for “with reference”, “the revised” for “IWCLL2008”, “of” for “and the evaluation criteria revised by”

[5] = test system: relapsed/refractory mantle cell lymphoma; test: Clinical trial in relapsed/refractory mantle cell lymphoma (Example 3)
Experimental: as §1, with “according” for “with reference”, “the revised” for “IWCLL2008”, “of” for “and the evaluation criteria revised by”

[6] = 20 mg QD dose group, 20 patients
[7] = 22 lymphoma patients enrolled, 18 evaluable for efficacy
[8] = Tumor type Lymphoma, 43 patients
[9] = overall conclusion of the trial
[10] = patient R1009, DLBCL, 10 mg/qd, administration cycle C7D28
[11] = patient R1018, FL, 20 mg/bid, administration cycle C2D28
[12] = patient R2008, FL, 10 mg/bid, administration cycle C2D3

Structure (SMILES): COc1ncc(-c2ccc3ncc(OCCN(C)C)c(=O)n3c2)cc1NS(=O)(=O)c1ccc(F)cc1Cl [compound of formula I]
- safety in treatment [1]: good safety
- treatment effect on small lymphocytic lymphoma or chronic lymphocytic leukemia [1]: good treatment effect
- safety in treatment ([2]; 20 mg orally once daily): good safety
- therapeutic effect on follicular lymphoma ([2]; 20 mg orally once daily): good therapeutic effect
- CR ([2]; 20 patients with follicular lymphoma, 20 mg orally once daily (2 cases)): 10.0%
- ORR ([2]; 20 patients with follicular lymphoma, 20 mg orally once daily (14 cases)): 70%
- ORR ([3]; 10 mg/qd and higher-dose group (11/15), 22 patients enrolled): 73%
- adverse event, a grade 3 hyperglycemia [3, 6]: 1 case
- overall safety and tolerance [3, 6]: good overall safety and tolerance
- ORR ([3]; 20 mg/qd group (4/4), 22 patients enrolled): 100%
- patients achieved CR (best efficacy) [3, 7]: 2 patients
- patients achieved PR (best efficacy) [3, 7]: 9 patients
- ORR ([3]; 35 lymphoma patients enrolled, 31 evaluated for efficacy (22/31)): 71%
- major grade 3 adverse event and dose-limiting toxicity (DLT) associated with study drugs ([3]; 35 lymphoma patients enrolled, controlled and returned to baseline by withdrawal of drug or symptom-oriented treatment): hyperglycemia
- ORR ([3]; 50 lymphoma patients enrolled, 43 evaluated for efficacy (28/43)): 65%
- ORR, n (%) ([3]; Tumor type CLL, 2 patients): 2 (100%) n (%)
- CR, n (%) ([3]; Tumor type DLBCL, 8 patients): 2 (25.0%) n (%)
- ORR, n (%) ([3]; Tumor type DLBCL, 8 patients): 4 (50.0%) n (%)
- CR, n (%) ([3]; Tumor type FL, 20 patients): 2 (10.0%) n (%)
- ORR, n (%) ([3]; Tumor type FL, 20 patients): 15 (75%) n (%)
- CR, n (%) [3, 8]: 4 (9.3%) n (%)
- ORR, n (%) [3, 8]: 28 (65%) n (%)
- ORR, n (%) ([3]; Tumor type MCL, 5 patients): 5 (100%) n (%)
- CR, n (%) ([3]; Tumor type NHL, 41 patients): 4 (9.8%) n (%)
- ORR, n (%) ([3]; Tumor type NHL, 41 patients): 28 (68%) n (%)
- Best efficacy ([3]; all the two follicular lymphoma patients in the 20 mg/qd group): achieved PR
- Best efficacy ([3]; all the two mantle cell lymphoma patients, relapsed or refractory after BTK inhibitor treatment): achieved PR
- ORR ([3]; follicular lymphoma (FL), 10 mg/qd and higher-dose group (6/8)): 75%
- safety [3, 9]: good safety
- therapeutic effect on lymphoma [3, 9]: good therapeutic effect
- Change in lesion ([3]; patient R1006, FL, 10 mg/qd, administration cycle C5D28): −84.0%
- Best efficacy [3, 10]: Small SD
- Change in lesion [3, 10]: −37.5%
- Best efficacy [3, 11]: Small SD
- Change in lesion [3, 11]: −33.0%
- Change in lesion ([3]; patient R2006, DLBCL, 10 mg/qd, administration cycle C3D28): −100.0%
- Best efficacy [3, 12]: Small SD
- Change in lesion [3, 12]: −42.0%
- Change in lesion ([3]; patient R2009, MCL, 10 mg/bid, administration cycle C3D28): −71.0%
- Change in lesion ([3]; patient R2011, FL, 20 mg/bid, administration cycle C1D14): −94.0%
- safety in treatment [4]: good safety
- therapeutic effect on diffuse large B-cell lymphoma [4]: good therapeutic effect
- safety in treatment ([5]; 20 mg orally once daily): good safety
- therapeutic effect on mantle cell lymphoma ([5]; 20 mg orally once daily): good therapeutic effect
- CR ([5]; 21 patients with mantle cell lymphoma, 20 mg orally once daily (2 cases)): 9.5%
- ORR ([5]; 21 patients with mantle cell lymphoma, 20 mg orally once daily (16 cases)): 76%
- patients reached ORR ([5]; of the 7 patients previously treated with a BTK inhibitor): Five

Source: US20230132982A1, “USE OF PYRIDO[1,2-A]PYRIMIDINONE COMPOUND IN TREATING LYMPHOMA” (priority 2020, published 2023)
